Laboratory results published in patent publication US10766869B2, “Triazoles for the treatment of demyelinating dieases” (Vertex Pharmaceuticals Incorporated, priority 2015, dated 2020).

System: primary rat mixed cortical cells
Test: In vitro myelination assay (MBP positive myelin strands, fold myelin pixels above background)
Type: cell-based
Settings: Rattus norvegicus, relative to baseline of no added compound, read-out: Fold myelin pixels above background; for fold induction at 1 µM: 1.0 μM compound; for fold induction at 10 µM: 10.0 μM compound
Method in brief: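 Compounds at 1.0 and 10.0 μM were incubated 14 days with dissociated P1 rat cortical cells, which were then fixed and immunostained for MBP. Myelination was scored as fold MBP myelin pixels per well over the no-compound baseline.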

Row | SMILES | fold induction at 1 µM | fold induction at 10 µM
1 | Cc1cc(Nc2ncn(-c3cc(F)cc(F)c3)n2)cc(C2(O)CCN(C3COC3)CC2)c1 [Compound 516, 4-[3-[[1-(3,5-difluorophenyl)-1,2,4-triazol-3-yl]amino]-5-methyl-phenyl]-1-(oxetan-3-yl)piperidin-4-ol] | 10 to 100 | 10 to 100
2 | Cc1cc(Nc2ncn(-c3cc(F)cc(F)c3)n2)cc(N2CCOC2=O)c1 [Compound 517, 3-[3-[[1-(3,5-difluorophenyl)-1,2,4-triazol-3-yl]amino]-5-methyl-phenyl]oxazolidin-2-one] | 10 to 100 | 10 to 100
3 | Cc1cc(Nc2ncn(-c3cc(F)cc(F)c3)n2)cc(N2CC(O)(C(C)C)C2)c1 [Compound 518, 1-[3-[[1-(3,5-difluorophenyl)-1,2,4-triazol-3-yl]amino]-5-methyl-phenyl]-3-isopropyl-azetidin-3-ol] | 10 to 100 | 10 to 100
4 | Cc1cc(Nc2ncn(-c3cc(F)cc(F)c3)n2)cc(N2CC(C(C)(C)O)C2)c1 [Compound 519, 2-[1-[3-[[1-(3,5-difluorophenyl)-1,2,4-triazol-3-yl]amino]-5-methyl-phenyl]azetidin-3-yl]propan-2-ol] | 100 to 1000 | ≤ 1
5 | COC1CC(Nc2cc(C)cc(Nc3ncn(-c4cc(F)cc(F)c4)n3)c2)C1 (stereo not drawn) [Compound 520, N3-[1-(3,5-difluorophenyl)-1,2,4-triazol-3-yl]-N1-(3-methoxycyclobutyl)-5-methyl-benzene-1,3-diamine] | 100 to 1000 | ≤ 1
6 | Cc1cc(Nc2ncn(-c3cnccn3)n2)cc(N2CCC(C3COC3)CC2)c1 [Compound 521, N-[3-methyl-5-[4-(oxetan-3-yl)-1-piperidyl]phenyl]-1-pyrazin-2-yl-1,2,4-triazol-3-amine] | 100 to 1000 | 100 to 1000
7 | Cc1cc(Nc2ncn(-c3cccc(F)c3)n2)cc(N2CCC(C3COC3)CC2)c1 [Compound 522, 1-(3-fluorophenyl)-N-[3-methyl-5-[4-(oxetan-3-yl)-1-piperidyl]phenyl]-1,2,4-triazol-3-amine] | 100 to 1000 | 100 to 1000
8 | CC(C)c1cc(Nc2ncn(-c3cccc(F)c3)n2)cc(N2CCN(C3COC3)CC2)c1 [Compound 523, 1-(3-fluorophenyl)-N-[3-isopropyl-5-[4-(oxetan-3-yl)piperazin-1-yl]phenyl]-1,2,4-triazol-3-amine] | 100 to 1000 | ≤ 1
9 | Fc1cccc(-n2cnc(Nc3cc(C(F)F)cc(N4CCN(C5COC5)CC4)n3)n2)c1 [Compound 525, 4-(difluoromethyl)-N-[1-(3-fluorophenyl)-1,2,4-triazol-3-yl]-6-[4-(oxetan-3-yl)piperazin-1-yl]pyridin-2-amine] | 100 to 1000 | 10 to 100
10 | FC(F)c1cc(Nc2ncn(-c3ccccc3)n2)nc(N2CCN(C3COC3)CC2)c1 [Compound 526, 4-(difluoromethyl)-6-[4-(oxetan-3-yl)piperazin-1-yl]-N-(1-phenyl-1,2,4-triazol-3-yl)pyridin-2-amine] | 100 to 1000 | 10 to 100
11 | Cc1cc(Nc2ncn(-c3cc(F)cc(F)c3)n2)cc(N2CC3CC(C2)O3)c1 [Compound 527, 1-(3,5-difluorophenyl)-N-[3-methyl-5-(6-oxa-3-azabicyclo[3.1.1]heptan-3-yl)phenyl]-1,2,4-triazol-3-amine] | 100 to 1000 | 100 to 1000
12 | Cc1cc(Nc2ncn(-c3cc(F)cc(F)c3)n2)cc(N2CCC3OCCC3C2)c1 (stereo not drawn) [Compound 528, N-[3-(3,3a,4,6,7,7a-hexahydro-2H-furo[3,2-c]pyridin-5-yl)-5-methyl-phenyl]-1-(3,5-difluorophenyl)-1,2,4-triazol-3-amine] | 100 to 1000 | 100 to 1000
13 | Cc1cc(Nc2ncn(-c3cc(F)cc(F)c3)n2)nc(N2CCNCC2)c1 [Compound 529, N-[1-(3,5-difluorophenyl)-1,2,4-triazol-3-yl]-4-methyl-6-piperazin-1-yl-pyridin-2-amine] | 1 to 10 | ≤ 1
14 | Cc1cc(Nc2ncn(-c3cc(F)cc(F)c3)n2)cc(N2CCN([C@H]3CCOC3)CC2)c1 [Compound 530, 1-(3,5-difluorophenyl)-N-[3-methyl-5-[4-[(3S)-tetrahydrofuran-3-yl]piperazin-1-yl]phenyl]-1,2,4-triazol-3-amine] | 100 to 1000 | 100 to 1000
15 | Cc1cc(Nc2ncn(-c3cc(F)cc(F)c3)n2)cc(N2CCN([C@@H]3CCOC3)CC2)c1 [Compound 531, 1-(3,5-difluorophenyl)-N-[3-methyl-5-[4-[(3R)-tetrahydrofuran-3-yl]piperazin-1-yl]phenyl]-1,2,4-triazol-3-amine] | 100 to 1000 | 100 to 1000
16 | FC(F)c1cc(Nc2ncn(-c3ccccn3)n2)nc(N2CCN(C3COC3)CC2)c1 [Compound 532, 4-(difluoromethyl)-6-[4-(oxetan-3-yl)piperazin-1-yl]-N-[1-(2-pyridyl)-1,2,4-triazol-3-yl]pyridin-2-amine] | 10 to 100 | 10 to 100
17 | Cc1cc(Nc2ncn(-c3cc(F)cc(F)c3)n2)nc(N2CCN(C(=O)OC(C)(C)C)CC2)c1 [Compound 533, tert-butyl 4-[6-[[1-(3,5-difluorophenyl)-1,2,4-triazol-3-yl]amino]-4-methyl-2-pyridyl]piperazine-1-carboxylate] | 10 to 100 | 1 to 10
18 | CC(=O)OCC(C)(CO)N1CCN(c2cc(C)cc(Nc3ncn(-c4cc(F)cc(F)c4)n3)c2)CC1 (stereo not drawn) [Compound 534, [2-[4-[3-[[1-(3,5-difluorophenyl)-1,2,4-triazol-3-yl]amino]-5-methyl-phenyl]piperazin-1-yl]-3-hydroxy-2-methyl-propyl] acetate] | 1 to 10 | ≤ 1
19 | Cc1cc(Nc2ncn(-c3cncnc3)n2)cc(N2CCN(C3COC3)CC2)c1 [Compound 535, N-[3-methyl-5-[4-(oxetan-3-yl)piperazin-1-yl]phenyl]-1-pyrimidin-5-yl-1,2,4-triazol-3-amine] | 1 to 10 | 1 to 10
20 | CC(C)c1cc(Nc2ncn(-c3cnccn3)n2)cc(N2CCN(C3COC3)CC2)c1 [Compound 536, N-[3-isopropyl-5-[4-(oxetan-3-yl)piperazin-1-yl]phenyl]-1-pyrazin-2-yl-1,2,4-triazol-3-amine] | 100 to 1000 | 100 to 1000
21 | Cc1cc(Nc2ncn(-c3cc(F)cc(F)c3)n2)nc(N2CC(N3CCOCC3)C2)c1 [Compound 537, N-[1-(3,5-difluorophenyl)-1,2,4-triazol-3-yl]-4-methyl-6-(3-morpholinoazetidin-1-yl)pyridin-2-amine] | 1 to 10 | ≤ 1
22 | Cc1cc(Nc2ncn(-c3cccc(F)c3)n2)nc(N2CC(N3CCOCC3)C2)c1 [Compound 538, N-[1-(3-fluorophenyl)-1,2,4-triazol-3-yl]-4-methyl-6-(3-morpholinoazetidin-1-yl)pyridin-2-amine] | 1 to 10 | 1 to 10
23 | c1cnc(-n2cnc(Nc3cc(C4CC4)cc(N4CC(N5CCOCC5)C4)c3)n2)cn1 [Compound 539, N-[3-cyclopropyl-5-(3-morpholinoazetidin-1-yl)phenyl]-1-pyrazin-2-yl-1,2,4-triazol-3-amine] | 10 to 100 | 10 to 100
24 | Fc1cc(F)cc(-n2cnc(Nc3cc(C(F)(F)F)cc(N4CCN(C5COC5)CC4)n3)n2)c1 [Compound 540, N-[1-(3,5-difluorophenyl)-1,2,4-triazol-3-yl]-6-[4-(oxetan-3-yl)piperazin-1-yl]-4-(trifluoromethyl)pyridin-2-amine] | 10 to 100 | 100 to 1000
25 | Cc1cc(Nc2ncn(-c3cc(F)cc(F)c3)n2)cc(N2CCCC3(COC3)C2)c1 [Compound 541, 1-(3,5-difluorophenyl)-N-[3-methyl-5-(2-oxa-8-azaspiro[3.5]nonan-8-yl)phenyl]-1,2,4-triazol-3-amine] | ≤ 1 | 1 to 10
26 | Cc1cc(Nc2ncn(-c3cc(F)cc(F)c3)n2)cc(N2CC(N3CCCC3=O)C2)c1 [Compound 542, 1-[1-[3-[[1-(3,5-difluorophenyl)-1,2,4-triazol-3-yl]amino]-5-methyl-phenyl]azetidin-3-yl]pyrrolidin-2-one] | 10 to 100 | 10 to 100
27 | Cc1cc(Nc2ncn(-c3cc(F)cc(F)c3)n2)cc(N2CCOC3(CCC3)C2)c1 [Compound 543, 1-(3,5-difluorophenyl)-N-[3-methyl-5-(9-oxa-6-azaspiro[3.5]nonan-6-yl)phenyl]-1,2,4-triazol-3-amine] | 1 to 10 | 1 to 10
28 | CCc1cc(Nc2ncn(-c3cncnc3)n2)cc(N2CC(N3CCOCC3)C2)c1 [Compound 544, N-[3-ethyl-5-(3-morpholinoazetidin-1-yl)phenyl]-1-pyrimidin-5-yl-1,2,4-triazol-3-amine] | 1 to 10 | 10 to 100
29 | Fc1cccc(-n2cnc(Nc3cc(C(F)(F)F)cc(N4CCN(C5COC5)CC4)n3)n2)c1 [Compound 545, N-[1-(3-fluorophenyl)-1,2,4-triazol-3-yl]-6-[4-(oxetan-3-yl)piperazin-1-yl]-4-(trifluoromethyl)pyridin-2-amine] | 10 to 100 | 10 to 100
30 | Fc1ccc(-n2cnc(Nc3cc(C(F)(F)F)cc(N4CCN(C5COC5)CC4)n3)n2)cc1F [Compound 546, N-[1-(3,4-difluorophenyl)-1,2,4-triazol-3-yl]-6-[4-(oxetan-3-yl)piperazin-1-yl]-4-(trifluoromethyl)pyridin-2-amine] | 1 to 10 | 10 to 100
